{"source": "paper PMC10135569", "about": "“Does Enhanced Structural Maturity of hiPSC-Cardiomyocytes Better for the Detection of Drug-Induced Cardiotoxicity?” (Biomolecules, 2023)", "key": {"[1]": {"tested_on": "hiPSC-CMs (iCell2 Cardiomyocytes) 2D monolayers", "test": "Membrane potential (action potential) recordings with FluoVolt voltage-sensitive dye on the CellOPTIQ platform", "type": "cell-based, human", "details": "for activity at 0.3 µM / activity at 1 µM / activity at 3 µM: Homo sapiens, Cardiomyocyte, 0.5 h, 30 min, delta over DMSO 0.1%", "how_it_was_run": "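iCell2 hiPSC-CM monolayers (50,000 cells/well on fibronectin or Matrix Plus, days 5–6) were loaded with FluoVolt (1:1000, 20 min, 37 °C) and imaged at 37 °C with 470 nm excitation and 510–560 nm emission sampled at 10 kHz. Spontaneous action potentials were recorded for 10 s at baseline and 30 min after drug, with one of four concentrations per well (n = 8).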"}, "[2]": {"tested_on": "hiPSC-CMs (iCell2 Cardiomyocytes) 2D monolayers", "test": "Contractility measurements using video imaging (ContractilityTool / MUSCLEMOTION)", "type": "cell-based, human", "details": "Homo sapiens, Cardiomyocyte, 0.5 h, 30 min, delta over DMSO 0.1%", "how_it_was_run": "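Monolayers on fibronectin or Matrix Plus coating, tested on days 5–6 in serum-free medium. Four concentrations, one per well, n = 8, with vehicle control.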"}, "[3]": {"details": "listed in Supplementary Table S1; no reference given; cited from earlier work"}, "[4]": {"details": "FM monolayer, read-out: APD30 (%DD)"}, "[5]": {"details": "FM monolayer, read-out: APD90 (%DD)"}, "[6]": {"details": "FM monolayer, read-out: Trise (%DD)"}, "[7]": {"details": "MM monolayer, read-out: APD30 (%DD)"}, "[8]": {"details": "MM monolayer, read-out: APD90 (%DD)"}, "[9]": {"details": "MM monolayer, read-out: Trise (%DD)"}, "[10]": {"details": "both FM and MM monolayers, concentration not given"}, "[11]": {"details": "FM monolayer, read-out: CtAmp (%DD)"}, "[12]": {"details": "FM monolayer, read-out: CtD50 (%DD)"}, "[13]": {"details": "MM monolayer, read-out: CtAmp (%DD)"}, "[14]": {"details": "MM monolayer, read-out: CtD50 (%DD)"}}, "data": [{"smiles": "C=C[C@H]1C[N@@]2CC[C@H]1C[C@@H]2[C@@H](O)c1ccnc2ccc(OC)cc12", "note": "[Quinidine]", "values": [{"measurement": "activity at 0.3 µM", "setting": "[1]; [4]", "result": "105 ± 2.9", "unit": "%"}, {"measurement": "activity at 0.3 µM", "setting": "[1]; [5]", "result": "115 ± 2.5", "unit": "%"}, {"measurement": "activity at 0.3 µM", "setting": "[1]; [6]", "result": "103 ± 14", "unit": "%"}, {"measurement": "activity at 1 µM", "setting": "[1]; [4]", "result": "104 ± 1.4", "unit": "%"}, {"measurement": "activity at 1 µM", "setting": "[1]; [5]", "result": "122 ± 1.4", "unit": "%"}, {"measurement": "activity at 1 µM", "setting": "[1]; [6]", "result": "135 ± 8.3", "unit": "%"}, {"measurement": "activity at 0.3 µM", "setting": "[1]; [7]", "result": "104 ± 1.4", "unit": "%"}, {"measurement": "activity at 0.3 µM", "setting": "[1]; [8]", "result": "108 ± 1.2", "unit": "%"}, {"measurement": "activity at 0.3 µM", "setting": "[1]; [9]", "result": "111 ± 15.7", "unit": "%"}, {"measurement": "activity at 1 µM", "setting": "[1]; [7]", "result": "100 ± 1.2", "unit": "%"}, {"measurement": "activity at 1 µM", "setting": "[1]; [8]", "result": "115 ± 0.8", "unit": "%"}, {"measurement": "activity at 1 µM", "setting": "[1]; [9]", "result": "123 ± 15", "unit": "%"}, {"measurement": "activity at 3 µM", "setting": "[1]; [7]", "result": "103 ± 2.1", "unit": "%"}, {"measurement": "activity at 3 µM", "setting": "[1]; [8]", "result": "121 ± 1.2", "unit": "%"}, {"measurement": "activity at 3 µM", "setting": "[1]; [9]", "result": "188 ± 23.3", "unit": "%"}, {"measurement": "effect on AP rise time (Trise) (in words)", "setting": "[1]; [10]", "result": "increased"}, {"measurement": "effect on APD90 (in words)", "setting": "[1]; [10]", "result": "increased"}, {"measurement": "effect on cycle length (in words)", "setting": "[1]; [10]", "result": "increased"}, {"measurement": "electrical activity of the monolayers at higher concentrations", "setting": "[1]; higher concentrations, FM and MM", "result": "electrically quiescent"}, {"measurement": "activity at 0.3 µM", "setting": "[2]; [11]", "result": "66 ± 15.3", "unit": "%"}, {"measurement": "activity at 0.3 µM", "setting": "[2]; [12]", "result": "111 ± 6.3", "unit": "%"}, {"measurement": "activity at 1 µM", "setting": "[2]; [11]", "result": "162 ± 50.3", "unit": "%"}, {"measurement": "activity at 1 µM", "setting": "[2]; [12]", "result": "106 ± 1.8", "unit": "%"}, {"measurement": "activity at 0.3 µM", "setting": "[2]; [13]", "result": "118 ± 21.6", "unit": "%"}, {"measurement": "activity at 0.3 µM", "setting": "[2]; [14]", "result": "107 ± 2.7", "unit": "%"}, {"measurement": "activity at 1 µM", "setting": "[2]; [13]", "result": "99 ± 13.1", "unit": "%"}, {"measurement": "activity at 1 µM", "setting": "[2]; [14]", "result": "97 ± 2.5", "unit": "%"}, {"measurement": "activity at 3 µM", "setting": "[2]; [13]", "result": "106 ± 11.4", "unit": "%"}, {"measurement": "activity at 3 µM", "setting": "[2]; [14]", "result": "105 ± 1.5", "unit": "%"}, {"measurement": "Free Cmax", "setting": "[3]", "result": 920, "unit": "nM"}]}]}
